From patent publication EP4389751A1, “HETEROCYCLIC COMPOUNDS AND USES THEREOF” (Kumquat Biosciences Inc., priority 2021, dated 2024)

Experiments:
[1] = target: T1, K-Ras G12S (Homo sapiens, UniProt P01116, G12S); assay: HTRF assay of the K-Ras / SOS1 interaction; assay type: biochemical; settings: IC50 (against K-Ras G12D) to IC50 (against K-Ras G12S)
T1 construct: made in house; host or cells: E. coli (e.g., BL21 (DE3))
Method in brief: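 Compounds (duplicates, 10 µM to 0.01 µM) were incubated ≥~10 min with Eu-labelled GST-K-Ras G12S and XL665-labelled His-hSOS1 in HEPES pH 7.4 buffer containing NaCl, DTT, BSA and Igepal. Disruption measured as HTRF emission ratio 665/620 nm, fitted to IC50.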

[2] = target: T2, KRAS protein (His-tagged GDP-loaded G12S 1-169) (Homo sapiens, UniProt P01116, G12S); assay: Covalent modification of KRAS protein, intact-protein LC-MS; assay type: binding; settings: 24hrs at room temperature, KRAS protein ~2 µM
T2 construct: His-tagged GDP-loaded G12S 1-169
Description: Test compounds are prepared as 10 mM stock solutions in DMSO (Fisher cat#BP231-100). KRAS protein (His-tagged GDP-loaded wildtype 1-169, His-tagged GDP-loaded G12S 1-169 or His-tagged GDP-loaded G12D 1-169) is diluted to ~2 µM in appropriate buffer (e.g., a Hepes buffer at physiological conditions). For testing KRAS modification, compounds are diluted to 50X final test concentration in DMSO in 96-well storage plates. 2 µl of the diluted 50X compounds are added to appropriate wells in the PCR plate (Fisher cat#AB-0800). […] of the stock protein solution is added to each well of the 96-well PCR plate. Reactions are mixed carefully. The plate is sealed well with aluminum plate seal, and stored in drawer at room temperature for 24hrs. 5 µl of 2% formic acid (Fisher cat#A1 17-50) in MilliQ H2O is then added to each well followed by mixing with a pipette. The plate is then resealed with aluminum seal and stored until mass spectrometry analysis.
The extent of covalent modification of KRAS proteins was determined by liquid chromatography electrospray mass spectrometry analysis of the intact proteins on a Thermo Q-Exactive Plus mass spectrometer. 20 µl of sample was injected onto a bioZen 3.6 µm Intact C4 column (Phenomenex cat#00B-4767-AN) placed in a column oven set to 40°C and separated using a suitable LC gradient from -20% to ~60% solvent B. Solvent A was 0.1% formic acid and solvent B was 0.1% formic acid in acetonitrile. HESI source settings were set to 40, 5 and 1 for the sheath, auxiliary and sweep gas flow, respectively. The spray voltage was 4 kV, and the capillary temperature was 320°C. S-lens RF level was 50 and auxiliary gas heater temperature was set to 200°C. The mass spectrometry was acquired using a scan range from 650 to 1750 m/z using positive polarity at a mass resolution of 70,000, AGC target of 1e6 ions and maximum injection time of 250ms. The recorded protein mass spectrum was deconvoluted from the raw data file using Protein Deconvolution v4.0 (Thermo). The protein mass and adduct masses were exported with their peak intensities. The peak intensities for the unmodified and modified protein were used to calculate the percent covalent modification of the KRAS protein based on the following equation: %KRAS protein modification = ((KRAS-compound) / (KRAS) + (KRAS-Compound)) *100.

Compound | Ratio of IC50 KRAS G12D vs. IC50 KRAS G12S [1] | % G12S Modification at 24 hr. [2]
N#Cc1c(N)sc2c(F)ccc(-c3c(Cl)cc4c(N5CC6CCCN(C(=O)n7cncn7)C6C5)nc(OC[C@@]56CCCN5C[C@H](F)C6)nc4c3F)c12 (stereo partly drawn) [Compound A284, 4-(4-(1-(1H-1,2,4-triazole-1-carbonyl)octahydro-6H-pyrrolo[3,4-b]pyridin-6-yl)-6-chloro-8-fluoro-2-(((2R,7aS)-2-fluorotetrahydro-1H-pyrrolizin-7a(5H)-yl)methoxy)quinazolin-7-yl)-2-amino-7-fluorobenzo[b]thiophene-3-carbonitrile] | A (A: indicates that the ratio of IC50 against KrasG12D vs. IC50 against KrasG12S is 1-fold or greater) | +++ (+++ indicates greater than 20% labelling)
N#Cc1cccn1C(=O)N1CCN(c2nc(OC[C@@]34CCCN3C[C@H](F)C4)nc3c(F)c(-c4ccc(F)c5sc(N)nc45)c(Cl)cc23)CC(F)(F)C1 [Compound A114, 1-(4-(7-(2-amino-7-fluorobenzo[d]thiazol-4-yl)-6-chloro-8-fluoro-2-(((2R,7aS)-2-fluorotetrahydro-1H-pyrrolizin-7a(5H)-yl)methoxy)quinazolin-4-yl)-6,6-difluoro-1,4-diazepane-1-carbonyl)-1H-pyrrole-2-carbonitrile] | A (A: indicates that the ratio of IC50 against KrasG12D vs. IC50 against KrasG12S is 1-fold or greater) | +++ (+++ indicates greater than 20% labelling)
N#Cc1c(N)sc2c(F)ccc(-c3ncc4c(N5CCOC6(CN(C(=O)n7cncn7)C6)C5)nc(OC[C@@]56CCCN5C[C@H](F)C6)nc4c3F)c12 [Compound A161, 4-(4-(2-(1H-1,2,4-triazole-1-carbonyl)-5-oxa-2,8-diazaspiro[3.5]nonan-8-yl)-8-fluoro-2-(((2R,7aS)-2-fluorotetrahydro-1H-pyrrolizin-7a(5H)-yl)methoxy)pyrido[4,3-d]pyrimidin-7-yl)-2-amino-7-fluorobenzo[b]thiophene-3-carbonitrile] | A (A: indicates that the ratio of IC50 against KrasG12D vs. IC50 against KrasG12S is 1-fold or greater) | +++ (+++ indicates greater than 20% labelling)
N#Cc1nccn1C(=O)N1CC2CN(c3nc(OC[C@@]45CCCN4C[C@H](F)C5)nc4c(F)c(-c5ccc(F)c6sc(N)nc56)c(Cl)cc34)CC2C1 (stereo partly drawn) [Compound A236, 1-(5-(7-(2-amino-7-fluorobenzo[d]thiazol-4-yl)-6-chloro-8-fluoro-2-(((2R,7aS)-2-fluorotetrahydro-1H-pyrrolizin-7a(5H)-yl)methoxy)quinazolin-4-yl)octahydropyrrolo[3,4-c]pyrrole-2-carbonyl)-1H-imidazole-2-carbonitrile] | A (A: indicates that the ratio of IC50 against KrasG12D vs. IC50 against KrasG12S is 1-fold or greater) | ++ (++ indicates between about 1%- 20% labelling)
N#Cc1c(N)sc2c(F)ccc(-c3c(Cl)cc4c(OC5CCCCN(C(=O)n6cncn6)C5)nc(OC[C@@]56CCCN5C[C@H](F)C6)nc4c3F)c12 (stereo partly drawn) [Compound A169, 4-(4-((1-(1H-1,2,4-triazole-1-carbonyl)azepan-3-yl)oxy)-6-chloro-8-fluoro-2-(((2R,7aS)-2-fluorotetrahydro-1H-pyrrolizin-7a(5H)-yl)methoxy)quinazolin-7-yl)-2-amino-7-fluorobenzo[b]thiophene-3-carbonitrile] | A (A: indicates that the ratio of IC50 against KrasG12D vs. IC50 against KrasG12S is 1-fold or greater) | +++ (+++ indicates greater than 20% labelling)
Nc1nc2c(-c3c(Cl)cc4c(N5CCCC6(CN(C(=O)n7cncn7)CCO6)C5)nc(OC[C@@]56CCCN5C[C@H](F)C6)nc4c3F)ccc(F)c2s1 (stereo partly drawn) [Compound A125, (8-(7-(2-amino-7-fluorobenzo[d]thiazol-4-yl)-6-chloro-8-fluoro-2-(((2R,7aS)-2-fluorotetrahydro-1H-pyrrolizin-7a(5H)-yl)methoxy)quinazolin-4-yl)-1-oxa-4,8-diazaspiro [5.5]undecan-4-yl)(1H-1,2,4-triazol-1-yl)methanone] | A (A: indicates that the ratio of IC50 against KrasG12D vs. IC50 against KrasG12S is 1-fold or greater) | ++ (++ indicates between about 1%- 20% labelling)
Nc1nc2c(-c3c(Cl)cc4c(N5CCC6(CCN(C(=O)n7cncn7)CC6)C5)nc(OC[C@@]56CCCN5C[C@H](F)C6)nc4c3F)ccc(F)c2s1 [Compound A198, (2-(7-(2-amino-7-fluorobenzo[d]thiazol-4-yl)-6-chloro-8-fluoro-2-(((2R,7aS)-2-fluorotetrahydro-1H-pyrrolizin-7a(5H)-yl)methoxy)quinazolin-4-yl)-2,8-diazaspiro[4.5]decan-8-yl)(1H-1,2,4-triazol-1-yl)methanone] | A (A: indicates that the ratio of IC50 against KrasG12D vs. IC50 against KrasG12S is 1-fold or greater) | +++ (+++ indicates greater than 20% labelling)
N#Cc1c(N)sc2c(F)ccc(-c3c(Cl)cc4c(O[C@@H]5CCN(C(=O)n6cncn6)C5)nc(OCC56CCCN5C[C@H](F)C6)nc4c3F)c12 (stereo partly drawn) [Compound A213, 4-(4-(((R)-1-(1H-1,2,4-triazole-1-carbonyl)pyrrolidin-3-yl)oxy)-6-chloro-8-fluoro-2-(((2R)-2-fluorotetrahydro-1H-pyrrolizin-7a(5H)-yl)methoxy)quinazolin-7-yl)-2-amino-7-fluorobenzo[b]thiophene-3-carbonitrile] | A (A: indicates that the ratio of IC50 against KrasG12D vs. IC50 against KrasG12S is 1-fold or greater) | ++ (++ indicates between about 1%- 20% labelling)
N#Cc1cnn(C(=O)N2CCCN(c3nc(OC[C@@]45CCCN4C[C@H](F)C5)nc4c(F)c(-c5ccc(F)c6sc(N)nc56)c(Cl)cc34)CC2)c1 [Compound A231, 1-(4-(7-(2-amino-7-fluorobenzo[d]thiazol-4-yl)-6-chloro-8-fluoro-2-(((2R,7aS)-2-fluorotetrahydro-1H-pyrrolizin-7a(5H)-yl)methoxy)quinazolin-4-yl)-1,4-diazepane-1-carbonyl)-1H-pyrazole-4-carbonitrile] | A (A: indicates that the ratio of IC50 against KrasG12D vs. IC50 against KrasG12S is 1-fold or greater) | ++ (++ indicates between about 1%- 20% labelling)
CN1CCC[C@H]1COc1nc(N2CCOC3(CN(C(=O)n4cncn4)C3)C2)c2cc(Cl)c(-c3ccc(F)c4sc(N)c(C#N)c34)c(F)c2n1 [Compound A182, 4-(4-(2-(1H-1,2,4-triazole-1-carbonyl)-5-oxa-2,8-diazaspiro[3.5]nonan-8-yl)-6-chloro-8-fluoro-2-(((S)-1-methylpyrrolidin-2-yl)methoxy)quinazolin-7-yl)-2-amino-7-fluorobenzo[b]thiophene-3-carbonitrile] | A (A: indicates that the ratio of IC50 against KrasG12D vs. IC50 against KrasG12S is 1-fold or greater) | ++ (++ indicates between about 1%- 20% labelling)
N#Cc1c(N)sc2c(F)ccc(-c3c(Cl)cc4c(N5CC(F)(F)C6CN(C(=O)n7cncn7)CCC65)nc(OC[C@@]56CCCN5C[C@H](F)C6)nc4c3F)c12 (stereo partly drawn) [Compound A263, 2-amino-4-(6-chloro-4-(3,3-difluoro-5-(1H-1,2,4-triazole-1-carbonyl)octahydro-1H-pyrrolo[3,2-c]pyridin-1-yl)-8-fluoro-2-(((2R,7aS)-2-fluorotetrahydro-1H-pyrrolizin-7a(5H)-yl)methoxy)quinazolm-7-yl)-7-fluorobenzo[b]thiophene-3-carbonitrile] | A (A: indicates that the ratio of IC50 against KrasG12D vs. IC50 against KrasG12S is 1-fold or greater) | ++ (++ indicates between about 1%- 20% labelling)
